Measurements as given in patent US20100036122A1, “CLEAVAGE AGENT SELECTIVELY ACTING ON SOLUBLE ASSEMBLY OF AMYLOIDOGENIC PEPTIDE OR PROTEIN” (priority 2006, published 2010).
Entries after “also recorded” stand apart in the source; their conditions may differ.

Legend:
Type in all cases: biochemical
Aβ40 = Aβ40 (Homo sapiens, UniProt P05067); experiment: Cleavage of oligomers of Aβ40 by cleavage agent (MALDI-TOF MS, cleavage yield); conditions: for cleavage of Aβ40 (MALDI-TOF mass spectrum): pH 7.50, 36 hours
Chain of Aβ40 (P05067 672-711 limits assumed): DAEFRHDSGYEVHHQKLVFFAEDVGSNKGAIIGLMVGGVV
Experimental: (§1) The activity of each cleavage agent was tested at 37° C. and pH 7.50 (0.050 M phosphoric acid) in Eppendorf tubes unless indicated otherwise in the Examples.
(§2) To generate the monomeric form of Aβ40 or Aβ42 in the early reaction stage, Aβ40 or Aβ42 was treated with NaOH prior to exposure to the pH 7.50 reaction medium (Fezoui, Y.; Hartley, D. M.; Harper, J. D.; Khurana, R.; Walsh, D. M.; Condron, M. M.; Selkoe, D. J.; Lansbury, P. T. Jr.; Fink, A. L.; Teplow, D. B. Amyloid 2000, 7, 166-178). The results for measurement of the fraction of Aβ40 (◯) or Aβ42 ([…]) (initial concentration: 4.0 μM) passing the membrane with cut-off MW of 10000 after incubation at pH 7.50 and 37° C. for various periods of self-assembly are illustrated in FIG. 5. According to the results, most (>80%) of Aβ42 (MW 4514) passes the filter immediately after exposure to the pH 7.50 medium. During the filtration through the membrane which takes about 10 minutes, large oligomers which cannot pass the membrane may have been generated. Therefore, it appears that most of the Aβ42 passed the membrane.
(§3) Unless specifically described in the Examples, cleavage reaction was initiated by adding Aβ40 or Aβ42 to the solution containing the cleavage agent, and the cleavage yield was estimated through the following process.
(§4) A product solution formed by the cleavage reaction was passed through the membrane with a cut-off MW of 10000 to remove aggregates of Aβ40 or Aβ42. Thereafter, the cleavage products were separated by HPLC, and the total amount of the cleavage products was estimated. The cleavage product was degraded to amino acids by alkaline hydrolysis, and then, the total amount of amino acids was estimated with fluorescamine to determine the total amount of the cleavage product. The cleavage yield was calculated by comparing the amount of the cleavage product with the initially added amount of the Aβ40 or Aβ42.
(§5) The cleavage yield measured by incubating Aβ40 or Aβ42 (4.0 μM) with various concentrations of cleavage agent A at pH 7.50 and 37° C. for 36 hours is illustrated in FIG. 8. The cleavage yields of Aβ40 or Aβ42 in the Examples are the mean value measured by using 4˜6 different reaction mixtures. The relative standard deviation (% RSD) of each cleavage yield is 5-15%.

Aβ42 = Aβ42 (Homo sapiens, UniProt P05067); experiment: Cleavage of oligomers of Aβ42 by cleavage agent (MALDI-TOF MS, cleavage yield); conditions: for cleavage of Aβ42 (MALDI-TOF mass spectrum): cleavage agent 0.50-1.0 μM, pH 7.50, 36 hours
Chain of Aβ42 (P05067 672-713 limits assumed): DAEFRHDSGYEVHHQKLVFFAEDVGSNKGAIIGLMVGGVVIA
Experimental: as §1, §2, §3, §4, §5

[1] = target: T1, amylin (Am; human islet amyloid polypeptide) (Homo sapiens, UniProt P10997); experiment: Cleavage of oligomers of amylin by cleavage agent (MALDI-TOF MS, cleavage yield); conditions: for cleavage of Am (MALDI-TOF mass spectrum of HPLC-purified products) / cleavage products of Am (MALDI-TOF MS): cleavage agent 0.38-7.1 μM (figure legends), pH 7.50, 36 hours
T1 construct: Am is a cyclic oligopeptide consisting of 37 amino acid residues
T1 sequence (P10997 34-70 limits assumed): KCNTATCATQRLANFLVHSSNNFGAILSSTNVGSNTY
Experimental: as §1
MALDI-TOF mass spectrum of the products purified with HPLC after incubating Am (4.0 μM) with cleavage agent A is illustrated in FIG. 12. In this Example and hereafter, MALDI-TOF mass spectra of cleavage products for Am were taken after purification with HPLC by the method described below.
Unless specifically described in the Examples, cleavage reaction of Am was initiated by adding Am to the solution containing the cleavage agent, and the cleavage yield was estimated through the following process. The product solution obtained from the cleavage reaction was passed through the membrane (cut-off MW=10000) to remove Am aggregates, and then the cleavage product was separated by HPLC. The total amount of the cleavage product was quantified. The cleavage product was converted to amino acids by alkaline hydrolysis, and the total amount of amino acids was estimated by using fluorescamine to determine the amount of the cleavage product. The cleavage yield was calculated by comparing the amount of cleavage product with that of the initial amount of Am.
The cleavage yields measured after reacting Am (4.0 μM) with various concentrations of cleavage agent A at 37° C. and pH 7.50 for 36 hours are illustrated in FIG. 13. The cleavage yields of Am in the Examples are the mean value measured by using 4[…]6 different reaction mixtures. The relative standard deviation of each cleavage yield is 5-15%.

α-synuclein (Syn) = target: T2, α-synuclein (Syn) (Homo sapiens, UniProt P37840, M5L); experiment: Cleavage of oligomer of α-synuclein by cleavage agent (cleavage yield); conditions: Syn 70 μM, pH 7.50, 37° C.; for cleavage yields of Syn: various concentrations of cleavage agent, 3 days
T2 construct: α-synuclein (Syn) is a protein consisting of 140 amino acids; histidine tag (LEHHHHHH) (C); made in house
Experimental: as §1
In the Examples, the slightly modified derivatives of α-synuclein (Syn) were used as a substrate to obtain α-synuclein (Syn) by gene recombination. To facilitate purification by the nickel chelate method, histidine tag (LEHHHHHH) was adhered to C-terminus. To avoid interference in the transcription, leucine instead of methionine was incorporated as the 5th amino acid residue.
Unless the context clearly indicates otherwise, Syn cleavage was initiated by adding Syn to the solution of the cleavage agent. The cleavage yield was calculated according to the following method.
A product solution formed by the cleavage reaction was passed through the membrane with the cut-off MW of 10000 to remove Syn and its assemblies. Then, the cleavage products were separated by HPLC, and the total amount of the cleavage products was estimated. The cleavage product was degraded to amino acids through alkaline hydrolysis. The total amount of the amino acids was then estimated with fluorescamine to quantify the total amount of the cleavage product. The cleavage yield was calculated by comparing the amount of the cleavage product with the initially added amount of Syn.
The cleavage yields measured by incubating Syn (70 μM) with various concentrations of cleavage agent A at pH 7.50 and 37° C. for 3 days are illustrated in FIG. 15. The cleavage yields in the Examples are the mean value measured by using 4˜6 different reaction solutions. Since the MW of Syn used in the Examples is about 15000, some of the protein fragments formed by the cleavage of Syn might have been too large to pass through the membrane with cut-off MW of 10000.

scrambled Aβ42 = experiment: Reaction with control peptides: scrambled Aβ42; conditions: scrambled Aβ42 4.0 μM, cleavage agent 3.0 μM, pH 7.50, 37° C., 36 hours
Experimental: The following control experiment was performed on cleavage agent A. The peptides or proteins used in the control experiment are not amyloidogenic. […] Two kinds of scrambled Aβ42, having the same 42 amino acids as Aβ42 in a scrambled sequence ([…], […]) (4.0 μM), were not cleaved by incubation with cleavage agent A (3.0 μM) at pH 7.50 and 37° C. for 36 hours.

[2] = test system: horse heart myoglobin, bovine serum γ-globulin, bovine serum albumin, human serum albumin, egg white lysozyme, egg white ovalbumin, bovine pancreas insulin; experiment: Reaction with control proteins (not amyloidogenic); conditions: each protein 2-7 μM, cleavage agent 5.0 μM, pH 7.50, 37° C., 36 hours
[3] = Aβ40 4.0 μM, cleavage agent 3.0 μM, 37° C.
[4] = Aβ40 4.0 μM, cleavage agent 3.0 μM, 36 hours, 37° C., pH 7.50
[5] = concluded from preincubation and filtration experiments
[6] = Aβ42 4.0 μM, cleavage agent 3.0 μM, 36 hours, 37° C., pH 7.50
[7] = Aβ42 4.0 μM, pH 7.50, 37° C., 36 hours
[8] = Am 4.0 μM, cleavage agent 1.0 μM, 36 hours, 37° C., pH 7.50

## CCCCNc1nc(NCCCN2CCNCCNCCNCC2)nc(NCc2ccc(-c3nc4ccccc4o3)cc2)n1.O.O.[Co+3] [cleavage agent A]
Aβ40; [3]
  cleavage of Aβ40 (MALDI-TOF mass spectrum): cleaved
Aβ40; [4]
  cleavage of Aβ40 after preincubation of Aβ40 for 24 hours: considerable peptide cleavage
  effect of preincubation of Aβ40 for periods longer than 24 hours on cleavage yield: reduces the cleavage yield
  yield for cleavage of Aβ40 after preincubation for 3-18 hours: does not decrease considerably
Aβ40; [5]
  assembly species of Aβ40 cleaved (selectivity): protofibrils or fibrils of Aβ40 are not cleaved
Aβ42; [6]
  cleavage of Aβ42 after preincubation of Aβ42 for 24 hours: little cleavage was observed
  cleavage yield after preincubation of Aβ42 for 3-6 hours compared with no preincubation: not much smaller
Aβ42; Aβ42 4.0 μM, 37° C.
  cleavage of Aβ42 (MALDI-TOF mass spectrum): cleaved
Aβ42; [7]
  concentration of cleavage agent at which cleavage reaction was detected: 100 nM
  plateau value of the yield for cleavage of Aβ42 at high concentration of the cleavage agent: about 30%
Aβ42; [5]
  assembly species of Aβ42 cleaved (selectivity): the oligomer is cleaved by the cleavage agent A and not the Aβ42 monomer, protofibril, or fibril
[1]; Am 4.0 μM, 37° C.
  cleavage of Am (MALDI-TOF mass spectrum of HPLC-purified products): cleaved
  cleavage products of Am (MALDI-TOF MS): Am20-37 and Am19-37
α-synuclein (Syn)
  cleavage yields of Syn: fairly large
Scrambled Aβ42
  cleavage of two kinds of scrambled Aβ42 (control): not cleaved
[2]
  cleavage of non-amyloidogenic control proteins: cleavage reaction was not detected

## CC(Nc1nc(NCc2ccc(Cl)cc2)nc(OCCN(C)c2ccc(-c3nc4ccccc4s3)cc2)n1)C(=O)NCCCN1CCNCCNCCNCC1.O.O.[Co+3] (centres unmarked) [cleavage agent B]
Aβ40; [3]
  cleavage of Aβ40 (MALDI-TOF mass spectrum): cleaved
Aβ40; Aβ40 4.0 μM, pH 7.50, 37° C., 36 hours
  plateau value of the yield for cleavage of Aβ40 at high concentration of the cleavage agent: about 12%
Aβ42; Aβ42 4.0 μM, 37° C.
  cleavage of Aβ42 (MALDI-TOF mass spectrum): cleaved
Aβ42; [7]
  concentration of cleavage agent at which cleavage reaction was detected: 30 to 50 nM
  plateau value of the yield for cleavage of Aβ42 at high concentration of the cleavage agent: ~17%
[1]; Am 4.0 μM, cleavage agent 1.0 μM, 37° C., pH 7.50
  cleavage yield against reaction time: does not increase even if the reaction period is increase beyond 36 hours
[1]; [8]
  amounts of cleavage products after preincubation of Am for 6 hours compared with no preincubation: not much smaller
  cleavage of Am after preincubation of Am for 36 hours or longer: little cleavage reaction occurred
[1]; Am 4.0 μM, 37° C.
  cleavage of Am (MALDI-TOF mass spectrum of HPLC-purified products): cleaved
  cleavage products of Am (MALDI-TOF MS): Am20-37, Am19-37 and Am17-37
[1]; [5]
  assembly species of Am cleaved (selectivity): oligomers of Am instead of the monomer, protofibrils, and fibrils of Am are cleaved
α-synuclein (Syn)
  cleavage yields of Syn: fairly large
Scrambled Aβ42
  cleavage of two kinds of scrambled Aβ42 (control): the same as those obtained in Example 1
[2]
  cleavage of non-amyloidogenic control proteins: the same as those obtained in Example 1

## Cc1ccccc1CNc1nc(NCCC(=O)NCCCN2CCNCCNCCNCC2)nc(OCCN(C)c2ccc(-c3nc4ccccc4s3)cc2)n1.O.O.[Co+3] [cleavage agent D]
Aβ40; Aβ40 4.0 μM, cleavage agent 0.1-10 μM, pH 7.50, 37° C., 36 hours
  cleavage of Aβ40 (MALDI-TOF MS data): did not reveal any evidence of cleavage
Aβ42; Aβ42 4.0 μM, 37° C.
  cleavage of Aβ42 (MALDI-TOF mass spectrum): cleaved
Aβ42; [7]
  concentration of cleavage agent at which cleavage reaction was detected: 50 to 100 nM
  plateau value of the yield for cleavage of Aβ42 at high concentration of the cleavage agent: about 12%
[1]; Am 4.0 μM, 37° C.
  cleavage of Am (MALDI-TOF mass spectrum of HPLC-purified products): cleaved
  cleavage products of Am (MALDI-TOF MS): Am20-37 and Am19-37
Scrambled Aβ42
  cleavage of two kinds of scrambled Aβ42 (control): the same as those obtained in Example 1
[2]
  cleavage of non-amyloidogenic control proteins: the same as those obtained in Example 1

## CCCCNc1nc(NCCCN2CCNCCNCCNCC2)nc(OCCN(C)c2ccc(-c3nc4ccccc4s3)cc2)n1.O.O.[Co+3] [cleavage agent E]
[1]; Am 4.0 μM, 37° C.
  cleavage of Am (MALDI-TOF mass spectrum of HPLC-purified products): cleaved
  cleavage products of Am (MALDI-TOF MS): Am17-37, Am16-37 and Am13-37
Scrambled Aβ42
  cleavage of two kinds of scrambled Aβ42 (control): the same as those obtained in Example 1
[2]
  cleavage of non-amyloidogenic control proteins: the same as those obtained in Example 1

## CC(C)CC(Nc1nc(OCCN(C)c2ccc(-c3nc4ccccc4s3)cc2)nc(N2CCCCC2)n1)C(=O)NCCCN1CCNCCNCCNCC1.O.O.[Co+3] (centres unmarked) [cleavage agent F]
[1]; Am 4.0 μM, 37° C.
  cleavage of Am (MALDI-TOF mass spectrum of HPLC-purified products): cleaved
  cleavage products of Am (MALDI-TOF MS): Am19-37 and Am17-37; also recorded: Am20-37, Am17-37 and Am14-37
Scrambled Aβ42
  cleavage of two kinds of scrambled Aβ42 (control): the same as those obtained in Example 1
[2]
  cleavage of non-amyloidogenic control proteins: the same as those obtained in Example 1

## Co^III complex of cyclen [reference compound]
Aβ40; complex 20 μM, Aβ40 4.0 μM, pH 7.50, 37° C., 36 hours
  cleavage of Aβ40 by complex lacking the recognition site: No peptide cleavage was observed
Aβ42; complex 20 μM, Aβ42 4.0 μM, pH 7.50, 37° C., 36 hours
  cleavage of Aβ42 by complex lacking the recognition site: No peptide cleavage was observed
[1]; complex 20 μM, Am 4.0 μM, pH 7.50, 37° C., 36 hours
  cleavage of Am by complex lacking the recognition site: No peptide cleavage was observed
α-synuclein (Syn); complex 20 μM, 36 hours
  cleavage of Syn by complex lacking the recognition site: No peptide cleavage was observed
